Patent US6414170B1, “Preparation of cationic surfactants containing ester group in molecules” (LG Chemical Ltd., priority 1998, dated 2002)

Experiment: OECD 301D Closed Bottle Test (evaluation of ultimate biodegradability)
Settings: 60% or more biodegraded two weeks from start of decomposition, test period of 28 days
Source text: Measuring of the ultimate biodegradability was made by taking an OECD 301D Closed Bottle Test (a test for determining whether or not 60% or more can be biodegraded two weeks from the time when the sample begins decomposing during the test period of 28 days) on cationic surfactants prepared in EXAMPLES 1 to 8, dimethyl dialkyl ammonium chloride, and imidazoline ester. The ultimate biodegradabilities of cationic surfactants of EXAMPLE 1, 2, 8, and conventional cationic surfactants were less than 60%, thereby not being readily biodegradable.

dimethyl dialkyl ammonium chloride
Readily biodegradable: No
